Patent publication US12343326B2, “Psychoactive medicines and their use for treating psychiatric and neurological conditions and disorders” (Transcend Therapeutics, Inc., priority 2021, dated 2025)

Tests used:
Assay in all cases: β-arrestin based GPCR screen (PathHunter / GPCRmax), antagonist mode
168 GPCRs [1] = biological target: T1, 168 GPCRs (Homo sapiens, UniProt Q9Y5Y4)
T1 sequence (Q9Y5Y4 1-395): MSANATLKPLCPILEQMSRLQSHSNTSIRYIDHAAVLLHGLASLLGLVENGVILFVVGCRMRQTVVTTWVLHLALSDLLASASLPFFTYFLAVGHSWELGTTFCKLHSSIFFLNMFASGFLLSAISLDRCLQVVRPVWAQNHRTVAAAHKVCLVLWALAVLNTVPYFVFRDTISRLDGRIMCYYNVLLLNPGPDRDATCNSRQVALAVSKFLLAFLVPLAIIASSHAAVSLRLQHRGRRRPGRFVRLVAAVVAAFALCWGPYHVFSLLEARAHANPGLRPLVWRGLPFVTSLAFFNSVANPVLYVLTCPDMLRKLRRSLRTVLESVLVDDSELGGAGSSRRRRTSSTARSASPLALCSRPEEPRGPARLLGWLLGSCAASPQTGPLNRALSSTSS

168 GPCRs [2] = biological target: 168 GPCRs (Homo sapiens, UniProt O43193); conditions: MLNR
168 GPCRs [3] = biological target: 168 GPCRs (Homo sapiens, UniProt P21918)
168 GPCRs [4] = biological target: 168 GPCRs (Homo sapiens, UniProt P25116); conditions: F2F, Antagonist mode, 10 uM
168 GPCRs [5] = biological target: 168 GPCRs (Homo sapiens, UniProt P48546); conditions: GIPR
168 GPCRs [6] = biological target: 168 GPCRs (Homo sapiens, UniProt Q16581); conditions: C3AR1, Antagonist
168 GPCRs [7] = biological target: 168 GPCRs (Homo sapiens, UniProt P08172); conditions: CHRM2, Antagonist
168 GPCRs [8] = biological target: 168 GPCRs (Homo sapiens, UniProt P18089); conditions: ADRA2B, Antagonist
168 GPCRs [9] = biological target: 168 GPCRs (Homo sapiens, UniProt P47872); conditions: SCTR
168 GPCRs [10] = biological target: 168 GPCRs (Homo sapiens, UniProt P21453)
168 GPCRs [11] = biological target: 168 GPCRs (Homo sapiens, UniProt P51686); conditions: CCR9, Antagonist
168 GPCRs [12] = biological target: 168 GPCRs (Homo sapiens, UniProt P25025)
168 GPCRs [13] = biological target: 168 GPCRs (Homo sapiens, UniProt P20309); conditions: CHRM3, Antagonist
168 GPCRs [14] = biological target: 168 GPCRs (Homo sapiens, UniProt P48145)
168 GPCRs [15] = biological target: 168 GPCRs (Homo sapiens, UniProt P32245); conditions: MC4R
168 GPCRs [16] = biological target: T2, 168 GPCRs (Homo sapiens, UniProt P08173); conditions: CHRM4, Antagonist
T2 sequence (P08173 1-479): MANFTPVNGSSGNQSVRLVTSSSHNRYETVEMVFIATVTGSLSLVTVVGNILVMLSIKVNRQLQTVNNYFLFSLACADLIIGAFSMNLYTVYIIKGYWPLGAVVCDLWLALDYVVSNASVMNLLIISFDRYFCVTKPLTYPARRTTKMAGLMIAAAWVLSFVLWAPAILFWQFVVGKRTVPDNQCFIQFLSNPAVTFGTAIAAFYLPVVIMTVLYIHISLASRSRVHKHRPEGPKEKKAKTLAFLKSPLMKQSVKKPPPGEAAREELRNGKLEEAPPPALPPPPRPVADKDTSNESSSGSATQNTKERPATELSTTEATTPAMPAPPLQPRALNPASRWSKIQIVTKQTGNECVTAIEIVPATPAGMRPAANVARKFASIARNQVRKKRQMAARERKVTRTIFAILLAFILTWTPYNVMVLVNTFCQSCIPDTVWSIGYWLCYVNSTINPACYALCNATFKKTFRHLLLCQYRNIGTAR

168 GPCRs [17] = biological target: 168 GPCRs (Homo sapiens, UniProt P48039); conditions: MTNR1A
168 GPCRs (Homo sapiens, UniProt P48039), sequence (P48039 whole entry): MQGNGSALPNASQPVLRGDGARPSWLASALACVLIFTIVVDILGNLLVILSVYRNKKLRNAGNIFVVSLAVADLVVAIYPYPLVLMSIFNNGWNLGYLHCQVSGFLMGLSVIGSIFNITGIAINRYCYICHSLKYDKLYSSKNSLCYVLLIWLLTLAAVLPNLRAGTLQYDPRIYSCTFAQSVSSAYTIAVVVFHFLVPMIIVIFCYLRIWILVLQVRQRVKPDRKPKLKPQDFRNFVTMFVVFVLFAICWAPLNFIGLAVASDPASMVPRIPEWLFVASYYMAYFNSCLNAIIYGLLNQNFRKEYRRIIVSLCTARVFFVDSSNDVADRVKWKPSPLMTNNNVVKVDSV

168 GPCRs (Homo sapiens, UniProt P21918), sequence (P21918 whole entry): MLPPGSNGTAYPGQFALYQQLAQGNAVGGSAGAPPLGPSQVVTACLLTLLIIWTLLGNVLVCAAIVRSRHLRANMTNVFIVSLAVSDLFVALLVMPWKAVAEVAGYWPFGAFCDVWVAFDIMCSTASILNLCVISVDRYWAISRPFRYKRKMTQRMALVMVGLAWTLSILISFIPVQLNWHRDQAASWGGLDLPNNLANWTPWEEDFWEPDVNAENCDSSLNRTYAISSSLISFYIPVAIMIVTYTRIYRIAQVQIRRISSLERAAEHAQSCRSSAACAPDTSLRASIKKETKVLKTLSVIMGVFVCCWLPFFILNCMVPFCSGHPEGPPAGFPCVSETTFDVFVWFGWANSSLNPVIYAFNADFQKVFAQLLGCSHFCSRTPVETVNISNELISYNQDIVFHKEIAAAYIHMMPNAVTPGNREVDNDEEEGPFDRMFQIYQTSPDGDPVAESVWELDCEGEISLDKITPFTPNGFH
168 GPCRs (Homo sapiens, UniProt P48546), sequence (P48546 22-466): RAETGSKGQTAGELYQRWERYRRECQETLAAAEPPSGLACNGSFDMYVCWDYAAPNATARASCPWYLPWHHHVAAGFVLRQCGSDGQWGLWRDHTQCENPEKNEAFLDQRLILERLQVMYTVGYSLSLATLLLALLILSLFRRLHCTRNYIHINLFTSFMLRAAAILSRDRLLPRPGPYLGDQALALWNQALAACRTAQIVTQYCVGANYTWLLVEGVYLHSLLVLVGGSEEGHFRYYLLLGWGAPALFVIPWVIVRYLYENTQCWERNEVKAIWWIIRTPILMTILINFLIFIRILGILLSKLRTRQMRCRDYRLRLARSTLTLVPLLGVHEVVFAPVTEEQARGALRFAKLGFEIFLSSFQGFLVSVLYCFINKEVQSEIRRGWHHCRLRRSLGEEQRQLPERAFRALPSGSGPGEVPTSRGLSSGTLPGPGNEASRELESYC
168 GPCRs (Homo sapiens, UniProt P48145), sequence (P48145 whole entry): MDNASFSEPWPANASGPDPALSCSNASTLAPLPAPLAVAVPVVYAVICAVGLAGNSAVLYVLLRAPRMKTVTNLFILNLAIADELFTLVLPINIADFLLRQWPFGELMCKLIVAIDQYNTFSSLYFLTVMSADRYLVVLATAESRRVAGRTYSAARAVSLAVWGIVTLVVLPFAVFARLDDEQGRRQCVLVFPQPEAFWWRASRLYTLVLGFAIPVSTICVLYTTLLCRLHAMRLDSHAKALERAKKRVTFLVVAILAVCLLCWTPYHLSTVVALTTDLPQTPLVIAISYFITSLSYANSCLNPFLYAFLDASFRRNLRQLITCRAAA
168 GPCRs (Homo sapiens, UniProt O43193), sequence (O43193 whole entry): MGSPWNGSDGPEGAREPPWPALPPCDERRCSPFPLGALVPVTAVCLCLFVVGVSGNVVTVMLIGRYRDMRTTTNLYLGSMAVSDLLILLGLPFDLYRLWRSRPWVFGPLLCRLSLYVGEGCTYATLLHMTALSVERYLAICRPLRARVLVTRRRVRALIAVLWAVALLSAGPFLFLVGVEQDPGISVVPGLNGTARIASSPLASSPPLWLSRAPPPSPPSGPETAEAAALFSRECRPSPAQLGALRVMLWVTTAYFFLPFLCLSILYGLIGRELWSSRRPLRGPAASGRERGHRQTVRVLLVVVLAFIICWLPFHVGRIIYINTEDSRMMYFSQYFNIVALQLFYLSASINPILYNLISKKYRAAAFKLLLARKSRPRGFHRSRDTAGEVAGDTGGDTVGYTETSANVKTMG
168 GPCRs (Homo sapiens, UniProt Q16581), sequence (Q16581 whole entry): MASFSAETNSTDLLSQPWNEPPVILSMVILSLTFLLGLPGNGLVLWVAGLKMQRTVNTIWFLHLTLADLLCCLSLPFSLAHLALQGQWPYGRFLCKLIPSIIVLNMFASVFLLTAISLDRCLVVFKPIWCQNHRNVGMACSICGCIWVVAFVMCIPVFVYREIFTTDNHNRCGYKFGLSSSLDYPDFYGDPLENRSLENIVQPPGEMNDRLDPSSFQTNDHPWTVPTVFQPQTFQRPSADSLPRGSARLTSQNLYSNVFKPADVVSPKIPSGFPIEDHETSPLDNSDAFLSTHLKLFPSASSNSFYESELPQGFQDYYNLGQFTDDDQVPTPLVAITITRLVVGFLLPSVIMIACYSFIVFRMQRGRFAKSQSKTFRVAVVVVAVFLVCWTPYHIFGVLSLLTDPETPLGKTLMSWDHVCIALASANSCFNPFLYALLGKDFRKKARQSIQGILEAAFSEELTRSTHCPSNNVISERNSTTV
168 GPCRs (Homo sapiens, UniProt P47872), sequence (P47872 23-440): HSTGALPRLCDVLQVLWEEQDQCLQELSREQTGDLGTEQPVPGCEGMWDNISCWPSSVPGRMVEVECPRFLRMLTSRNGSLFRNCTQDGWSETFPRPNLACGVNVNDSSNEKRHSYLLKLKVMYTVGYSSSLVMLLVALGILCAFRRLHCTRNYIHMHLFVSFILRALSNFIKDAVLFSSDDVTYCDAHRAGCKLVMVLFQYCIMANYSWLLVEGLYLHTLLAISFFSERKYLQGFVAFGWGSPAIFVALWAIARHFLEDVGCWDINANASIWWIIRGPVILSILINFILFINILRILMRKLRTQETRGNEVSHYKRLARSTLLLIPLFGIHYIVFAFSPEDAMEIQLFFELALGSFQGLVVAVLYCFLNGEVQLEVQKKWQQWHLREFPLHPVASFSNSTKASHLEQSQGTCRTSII
168 GPCRs (Homo sapiens, UniProt P25025), sequence (P25025 whole entry): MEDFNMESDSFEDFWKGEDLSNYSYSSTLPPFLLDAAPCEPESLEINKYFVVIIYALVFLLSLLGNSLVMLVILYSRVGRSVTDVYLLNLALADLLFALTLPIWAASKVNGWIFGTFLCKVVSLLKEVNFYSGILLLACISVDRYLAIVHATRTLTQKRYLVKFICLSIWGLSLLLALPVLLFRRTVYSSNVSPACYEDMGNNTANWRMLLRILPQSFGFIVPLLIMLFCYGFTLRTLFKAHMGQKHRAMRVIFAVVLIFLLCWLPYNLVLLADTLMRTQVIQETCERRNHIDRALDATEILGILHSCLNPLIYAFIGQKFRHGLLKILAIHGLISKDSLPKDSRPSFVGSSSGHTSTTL
168 GPCRs (Homo sapiens, UniProt P18089), sequence (P18089 whole entry): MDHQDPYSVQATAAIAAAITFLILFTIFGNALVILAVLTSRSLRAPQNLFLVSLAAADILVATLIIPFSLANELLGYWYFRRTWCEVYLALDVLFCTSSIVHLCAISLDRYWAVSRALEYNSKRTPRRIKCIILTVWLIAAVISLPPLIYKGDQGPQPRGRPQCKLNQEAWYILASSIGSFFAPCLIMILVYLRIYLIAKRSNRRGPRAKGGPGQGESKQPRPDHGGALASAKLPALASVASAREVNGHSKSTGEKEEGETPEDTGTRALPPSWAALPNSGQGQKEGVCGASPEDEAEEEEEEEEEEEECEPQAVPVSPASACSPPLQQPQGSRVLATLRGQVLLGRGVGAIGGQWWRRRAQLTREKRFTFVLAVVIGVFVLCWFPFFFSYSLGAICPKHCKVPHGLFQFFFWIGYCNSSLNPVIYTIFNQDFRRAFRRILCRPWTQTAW
168 GPCRs (Homo sapiens, UniProt P51686), sequence (P51686 whole entry): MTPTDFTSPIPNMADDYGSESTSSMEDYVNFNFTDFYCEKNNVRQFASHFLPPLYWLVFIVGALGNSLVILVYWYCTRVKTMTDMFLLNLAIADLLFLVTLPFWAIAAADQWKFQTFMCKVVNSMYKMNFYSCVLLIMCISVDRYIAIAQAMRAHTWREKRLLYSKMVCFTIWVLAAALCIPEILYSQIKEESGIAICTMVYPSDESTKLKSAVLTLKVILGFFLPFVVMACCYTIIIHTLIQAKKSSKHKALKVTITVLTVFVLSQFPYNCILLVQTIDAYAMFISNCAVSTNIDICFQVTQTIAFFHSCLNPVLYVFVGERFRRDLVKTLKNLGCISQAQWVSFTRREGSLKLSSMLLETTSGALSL
168 GPCRs (Homo sapiens, UniProt P21453), sequence (P21453 whole entry): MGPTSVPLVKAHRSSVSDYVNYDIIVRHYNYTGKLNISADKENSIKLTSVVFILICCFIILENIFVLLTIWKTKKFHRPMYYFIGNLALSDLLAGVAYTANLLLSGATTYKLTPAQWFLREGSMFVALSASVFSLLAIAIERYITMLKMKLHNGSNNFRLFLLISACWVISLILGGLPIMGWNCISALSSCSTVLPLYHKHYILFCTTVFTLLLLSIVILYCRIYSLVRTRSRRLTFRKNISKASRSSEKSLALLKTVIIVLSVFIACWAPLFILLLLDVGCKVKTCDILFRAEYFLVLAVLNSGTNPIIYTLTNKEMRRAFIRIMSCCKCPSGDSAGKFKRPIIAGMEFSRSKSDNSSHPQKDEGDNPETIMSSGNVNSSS
168 GPCRs (Homo sapiens, UniProt P32245), sequence (P32245 whole entry): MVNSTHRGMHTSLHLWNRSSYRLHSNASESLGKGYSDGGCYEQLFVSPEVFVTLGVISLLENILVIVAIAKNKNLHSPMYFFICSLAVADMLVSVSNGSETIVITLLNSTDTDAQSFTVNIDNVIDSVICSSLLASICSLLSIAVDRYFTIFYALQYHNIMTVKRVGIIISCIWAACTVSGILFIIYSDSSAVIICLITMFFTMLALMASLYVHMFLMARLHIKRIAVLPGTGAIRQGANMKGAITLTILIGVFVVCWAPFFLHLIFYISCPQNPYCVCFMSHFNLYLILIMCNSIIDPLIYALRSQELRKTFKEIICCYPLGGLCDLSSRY

CNC(C)C(=O)c1ccc2c(c1)OCO2 (stereo not drawn) [methylone, 3,4-methylenedioxy-N-methylcathinone]
activity at 10 µM (168 GPCRs [1]; CRTH2, Antagonist mode, 10 uM): 8.9% | activity at 1 µM (168 GPCRs [1]; CRTH2, Antagonist, 1 uM): 9% | activity at 10 µM (168 GPCRs [2]; Antagonist mode, 10 uM): 12.3% | activity at 1 µM (168 GPCRs [2]; Antagonist, 1 uM): 15.6% | activity at 10 µM (168 GPCRs [3]; DRD5, Antagonist mode, 10 uM): -2.6% | activity at 1 µM (168 GPCRs [3]; DRD5, Antagonist, 1 uM): -5.9% | activity at 10 µM (168 GPCRs [4]): -11.4% | activity at 10 µM (168 GPCRs [5]; Antagonist mode, 10 uM): -5.1% | activity at 1 µM (168 GPCRs [5]; Antagonist, 1 uM): -1% | activity at 1 µM (168 GPCRs [6]; 1 uM): 2.5% | activity at 10 µM (168 GPCRs [6]; 10 uM): 0.3% | activity at 1 µM (168 GPCRs [7]; 1 uM): -18.5% | activity at 10 µM (168 GPCRs [7]; 10 uM): -7.4% | activity at 1 µM (168 GPCRs [8]; 1 uM): 8.5% | activity at 10 µM (168 GPCRs [8]; 10 uM): 6.3% | activity at 10 µM (168 GPCRs [9]; Antagonist mode, 10 uM): 2.5% | activity at 1 µM (168 GPCRs [9]; Antagonist, 1 uM): 5.3% | activity at 10 µM (168 GPCRs [10]; EDG1, Antagonist mode, 10 uM): 10.5% | activity at 1 µM (168 GPCRs [10]; EDG1, Antagonist, 1 uM): 12.4% | activity at 1 µM (168 GPCRs [11]; 1 uM): 2.9% | activity at 10 µM (168 GPCRs [11]; 10 uM): -9.9% | activity at 10 µM (168 GPCRs [12]; CXCR2, Antagonist mode, 10 uM): -1% | activity at 1 µM (168 GPCRs [12]; CXCR2, Antagonist, 1 uM): -7.6% | activity at 1 µM (168 GPCRs [13]; 1 uM): -5.5% | activity at 10 µM (168 GPCRs [13]; 10 uM): 14.6% | activity at 10 µM (168 GPCRs [14]; NPBWR1, Antagonist mode, 10 uM): 25.1% | activity at 1 µM (168 GPCRs [14]; NPBWR1, Antagonist, 1 uM): 17.1% | activity at 10 µM (168 GPCRs [15]; Antagonist mode, 10 uM): -14% | activity at 1 µM (168 GPCRs [15]; Antagonist, 1 uM): -5.2% | activity at 1 µM (168 GPCRs [16]; 1 uM): 10.2% | activity at 10 µM (168 GPCRs [16]; 10 uM): 6.7% | activity at 10 µM (168 GPCRs [17]; Antagonist mode, 10 uM): 7.8% | activity at 1 µM (168 GPCRs [17]; Antagonist, 1 uM): 30.8%
